Experimental data taken from US20130230486A1, “COMPOSITIONS AND METHODS TO INDUCE TARGETED APOPTOSIS” (priority 2010, published 2013).

Key:
PTPN13 [1] = assay: PTPN13 mRNA expression by quantitative PCR in lung fibroblasts; type: cell-based, human; settings: NHLF, FHLF and MRC5, IFN-γ 50 U/ml, 6 hours
Description: (§1) To assess the effects of these cytokines on PTPN13 expression, non-diseased normal human lung fibroblasts (NHLF), fibrotic human lung fibroblasts (FHLF) and a fetal lung fibroblast cell line, MRC5 cells, were treated with TNF-α (10/ng/ml), IFN-γ (50 U/ml) or with both cytokines for 6 hours. PTPN13 expression was measured by quantitative PCR (FIG. 2A). The primary lung fibroblasts from normal and fibrotic lung had equivalent levels of PTPN13 expression to the MRC5 lung fibroblast cell line. […] Treatment with TNF-α alone caused a 40% decrease in PTPN13 expression. Combined exposure to TNF-α and IFN-γ decreased PTPN13 mRNA expression by 80%. Protein lysates from normal, fibrotic and MRC5 fibroblasts treated for 36 hours with TNF-α (10/ng/ml), IFN-γ (50 U/ml) or with both cytokines were then analyzed for PTPN13 expression. […]
FIG. 2: TNF-α and IFN-γ decrease PTPN13 expression. […] A. Top panel is a quantitative RT-PCR analysis of PTPN13 mRNA lower panel is a Western blot analysis for PTPN13 protein.B. Time course of PTPN13 mRNA expression following TNF-a (10 ng/ml) and IFN-g (50 U/ml) treatment. […] Caspase-8 was measured using a fluorescence based assay.
Total RNA was obtained from 1×10^6 MRC5 cells using the Qiagen RNA Miniprep Kit (Qiagen) following the manufacturer's instructions. […] The fluorescence values of the threshold cycles were collected and normalized to GAPDH. […]

PTPN13 [2] = assay: PTPN13 protein expression by Western blot in lung fibroblasts; type: cell-based, human; settings: normal, fibrotic and MRC5 fibroblasts; TNF-α 10 ng/ml, IFN-γ 50 U/ml; 36 hours
Description: as §1
In one exemplary method, to assess whether PTPN13 expression prevents Fas-induced apoptosis, PTPN13 expression was knocked-down using siRNA. […] Apoptosis was assayed by quantifying activation of caspase-3 and caspase-8 (FIG. 3C).
FIG. 3: Decreased PTPN13 expression sensitizes fibroblasts to Fas-induced apoptosis. […] PTPN13 expression was quantified by western blot analysis and densitometry was performed. […] Fas activating antibody (250 ng/ml) (Fas activating antibody) or PBS (unstimulated) was added for 2 hours before analyzing Caspase-8 activation by a fluorescence-based assay. c. […]

murine model of fibrosis = assay: Bleomycin murine model of fibrosis, mortality; type: in vivo, mouse; settings: 2.5 U/kg bleomycin into the trachea
Description: To assess the effect of PTPN13 on development of fibrosis in vivo, we used a murine model of fibrosis in a PTPN13-/- mouse. The PTPN13-/- mouse has been characterized by Grusby to have abnormal STAT4 signaling which leads to augmented skewing toward TH1 or TH2 phenotypes. 2.5 U/kg bleomycin was administered directly into the tracheas of PTPN13-/- mice along with wildtype controls. […] Due to drastic weight decreases in the wildtype mice, two weeks was chosen as the end time point. […] Of the 20 wildtype mice treated with bleomycin, 11 (55%) died before two weeks as compared to the PTPN13-/- mice where three of the 20 (15%) died. Saline had no effect on mortality. Then static compliance was measured. The saline treated wildtype and PTPN13-/- mice had similar values of static compliance. […] Collagen content was measured in the lung using a hydroxyproline assay. […] To determine a possible cause for the decreased static compliance in the PTPN13-/- mice, we also measured other markers of lung disease, such as cellular infiltration and capillary leak. We measured the cellularity of the bronchoalveolar fluid (BALF). […] Capillary leak was determined by albumin present in the BALF (FIG. 6F). […] To validate these findings, stereology was performed on lung sections to quantify presence of collagen and diseased areas. […] Percentage of diseased lung was also measured by stereology. […]

| Substance | PTPN13 mRNA expression compared to untreated cells (in words) (PTPN13 [1]) | PTPN13 protein expression (Western blot) (PTPN13 [2]) | decrease in PTPN13 mRNA expression (PTPN13 [1]; TNF-α 10 ng/ml, compared to untreated cells) | mice that died before two weeks (murine model of fibrosis; PTPN13-/- mice, three of 20) | mice that died before two weeks (murine model of fibrosis; wildtype mice, 11 of 20) |
| --- | --- | --- | --- | --- | --- |
| IFN-γ: Recombinant human IFN-γ purchased from R&D Systems | minimal decrease | not decreased | – | – | – |
| TNF-α | – | decreased | 40% | – | – |
| bleomycin | – | – | – | 15% | 55% |
